Literature values in US9289396B2, “Collagen-based implants for sustained delivery of drugs” (Euclid Systems Corporation, priority 2010, dated 2016).

Assays:
[1] = in phosphate buffer

Row | Structure (SMILES) | Approx. Solubility in water [µg/mL] | aqueous solubility [1]
1 | CCOC(=O)O[C@]1(C(=O)OCCl)CC[C@H]2[C@@H]3CCC4=CC(=O)C=C[C@]4(C)[C@H]3[C@@H](O)C[C@@]21C [loteprednol etabonate] | 7 | –
2 | NC(=O)Cc1cccc(C(=O)c2ccccc2)c1N [nepafenac] | 20 | –
3 | CC(C)OC(=O)CCC/C=C\C[C@@H]1[C@@H](/C=C/[C@@H](O)COc2cccc(C(F)(F)F)c2)[C@H](O)C[C@@H]1O [travoprost] | 8 | –
4 | CC(C)OC(=O)CCC/C=C\C[C@@H]1[C@@H](CC[C@@H](O)CCc2ccccc2)[C@H](O)C[C@@H]1O [latanoprost, 13,14-dihydro-17-phenyl-18,19,20-trinor-prostaglandin F2a-1-isopropyl ester] | – | about 50 μg/mL
5 | CCNC(=O)CCC/C=C\C[C@@H]1[C@@H](/C=C/[C@@H](O)CCc2ccccc2)[C@H](O)C[C@@H]1O [bimatoprost] | 20 | –
6 | CN1CCC(=C2c3ccccc3CC(=O)c3sccc32)CC1 [ketotifen] | 8 | –
7 | CN(CCCCCCCCCCN(C)C(=O)Oc1cccc([N+](C)(C)C)c1)C(=O)Oc1cccc([N+](C)(C)C)c1 [demecarium] | 0.1 | –
8 | CC(C(=O)O)c1ccc(C(=O)c2cccs2)cc1 (stereo not shown) [suprofen] | 40 | –
9 | CNCC(O)c1ccc(OC(=O)C(C)(C)C)c(OC(=O)C(C)(C)C)c1 (stereo not shown) [dipivefrin] | 58 | –
10 | C[C@H]1C[C@H]2[C@@H]3CCC4=CC(=O)C=C[C@]4(C)[C@@]3(F)[C@@H](O)C[C@]2(C)[C@@]1(O)C(=O)CO [betamethasone] | 0.5 | –
